# Patent publication US20090131354A1, “miR-126 REGULATED GENES AND PATHWAYS AS TARGETS FOR THERAPEUTIC INTERVENTION” (priority 2007, published 2009)
# Assays:
# [1] = tested on: lung cancer cells A549, H1299, H522, H838, Calu-3, HCC827, HCC2935, H520, H1650, H460, H226; assay: Alamar Blue proliferation assay, all lung cancer cell lines tested; format: cell-based, human; details: 30 nM
# Source text: The inventors assessed the therapeutic effect of hsa-miR-126 for lung cancer by using 11 individual lung cancer cell lines. To measure cellular proliferation of lung cancer cells, the following non-small cell lung cancer (NSCLC) cells were used: cells derived from lung adenocarcinoma (A549, H1299, H522, H838, Calu-3, HCC827, HCC2935), cells derived from lung squamous cell carcinoma (H520, H226), cells derived from lung bronchioalveolar carcinoma (H1650), and cells derived from lung large cell carcinoma (H460). Synthetic hsa-miR-126 (Pre-miR™-hsa-miR-126, Ambion cat. no. AM17100) or negative control (NC) miRNA (Pre-miR™ microRNA Precursor Molecule-Negative Control #2; Ambion cat. no. AM17111) was delivered via lipid-based transfection into A549, H1299, H522, H838, Calu-3, HCC827, HCC2935, H520, H1650, and H460 cells, and via electroporation into H226 cells.
# Lipid-based reverse transfections were carried out in triplicate according to a published protocol (Ovcharenko et al., 2005) and the following parameters: Cells (5,000-12,000 per 96 well), 0.1-0.2 μl Lipofectamine™ 2000 (cat. no. 11668-019, Invitrogen Corp., Carlsbad, Calif., USA) in 20 μl OptiMEM (Invitrogen), 30 nM final concentration of miRNA in 100 μl. […]
# [2] = tested on: A549 cells; assay: Ingenuity Pathways Analysis of affected cellular pathways; design: species or system human
# Method: The mis-regulation of gene expression by hsa-miR-126 (Table 1) affects many cellular pathways that represent potential therapeutic targets for the control of cancer and other diseases and disorders. The inventors determined the identity and nature of the cellular genetic pathways affected by the regulatory cascade induced by hsa-miR-126 expression. Cellular pathway analyses were performed using Ingenuity Pathways Analysis (Version 4.0, Ingenuity® Systems, Redwood City, Calif.). Alteration of a given pathway was determined by Fisher's Exact test (Fisher, 1922).
# [3] = tested on: human PPC-1 prostate cancer xenograft; assay: PPC-1 prostate cancer xenograft; format: in vivo, NOD/SCID mice; details: PPC-1 xenograft
# Method: Therefore, hsa-miR-126 is a likely to interfere with prostate tumor growth in the animal. To explore this possibility, the therapeutic potential of synthetic hsa-miR-126 miRNA was evaluated in the animal using the PPC-1 human prostate cancer xenograft. As described in Example 8, 5×10^6 PPC-1 cells per animal were electroporated with 1.6 μM synthetic hsa-miR-126 or negative control miRNA (Pre-miR™-hsa-miR-126, Ambion cat. no. AM17100; NC, Pre-miR™ microRNA Precursor Molecule-Negative Control #2, Ambion cat. no. AM17111), mixed with BD Matrigel™, (BD Biosciences; San Jose, Calif., USA; cat. no. 356237) in a 1:1 ratio and implanted subcutaneously into the lower back of NOD/SCID mice (Charles River Laboratories, Inc.; Wilmington, Mass., USA). A group of 7 mice was injected with hsa-miR-126 treated PPC-1 cells, and a group of 7 animals was injected with PPC-1 cells treated with negative control miRNA. To maintain steady levels of miRNA, 6.25 μg of each hsa-miR-126 or negative control miRNA conjugated with the lipid-based siPORT™ amine delivery agent (Ambion, Austin, Tex.; cat. no. AM4502) were repeatedly administered on days 7, 13 and 20 via intra-tumoral injections. Given an average mouse weight of 20 g, this dose equals 0.3125 mg/kg. Tumor growth was monitored by taking caliper measurements every 1-2 days for 22 days. Tumor volumes were calculated using the formula, Volume=length×width×width/2, in which the length is greater than the width, and plotted over time (FIG. 13). Standard deviations and data points with p values <0.01, indicating statistical significance, are shown in graph.
substance,measurement,setting,value
"hsa-miR-126 (UCGUACCGUGAGUAAUAAUGC; synthetic pre-miR form, further chemistry not given here) [Synthetic hsa-miR-126 (Pre-miR™-hsa-miR-126, Ambion cat. no. AM17100)]",average inhibition of cellular proliferation,[1]; average of 11 lung cancer cell lines,25.33%
same,growth-inhibitory activity compared with etoposide,[1]; lung cancer cell lines,comparable to that of etoposide at concentrations >10 μM
same,Number of Genes,"[2]; pathway: Cancer, Cellular Movement, Tumor Morphology",23
same,Number of Genes,"[2]; pathway: Carbohydrate Metabolism, Connective Tissue Disorders, Inflammatory Disease",15
same,Number of Genes,"[2]; pathway: Cell Cycle, Connective Tissue Development and Function, Immune Response",1
same,Number of Genes,"[2]; pathway: Cell Cycle, Lipid Metabolism, Molecular Transport",15
same,Number of Genes,"[2]; pathway: Cell Death, Cell-To-Cell Signaling and Interaction, Cellular Assembly and Organization",1
same,Number of Genes,"[2]; pathway: Cell Morphology, Cellular Assembly and Organization, Cellular Development",15
same,Number of Genes,"[2]; pathway: Cell Signaling, Molecular Transport, Neurological Disease",1
same,Number of Genes,"[2]; pathway: Cell-To-Cell Signaling and Interaction, Immune Response, Immune and Lymphatic System Development and Function",13
same,Number of Genes,"[2]; pathway: Cellular Assembly and Organization, Cancer, Skeletal and Muscular Disorders",16
same,Number of Genes,"[2]; pathway: Cellular Function and Maintenance, Cellular Assembly and Organization, Cell Cycle",11
same,Number of Genes,"[2]; pathway: Cellular Growth and Proliferation, Skeletal and Muscular System Development and Function, Cancer",16
same,Number of Genes,"[2]; pathway: Cellular Movement, Cellular Assembly and Organization, Drug Metabolism",16
same,Number of Genes,"[2]; pathway: Developmental Disorder, Endocrine System Disorders, Lipid Metabolism",1
same,Number of Genes,"[2]; pathway: Immune Response, Cellular Assembly and Organization, Gene Expression",1
same,Number of Genes,"[2]; pathway: Molecular Transport, Protein Trafficking, Cell-To-Cell Signaling and Interaction",1
same,average volume of tumors,"[3]; day 22, 6.25 μg intratumoral days 7, 13, 20",157 mm^3
same,tumor volumes after treatment,[3]; in response to treatments on days 7 and 13,approximately 130 mm^3
same,tumor growth,[3]; repeated dosing,blocked tumor growth
